{
  "source": "paper PMC9386913",
  "about": "(Arthritis Research & Therapy, 2022)",
  "key": {"[1]": {"tested_on": "TTP", "test": "Total TTP protein by capillary electrophoresis in LPS-stimulated macrophages", "format": "cell-based, human", "conditions": "4 h or 24 h", "procedure": "Monocytes and macrophages were pre-treated for 1 h with DMSO or compound, followed by LPS stimulation (100 ng/mL) for 4 or 24 h (includes 1 h pre-treatment). Medium from the cultured macrophages was used for cytokine analysis using Magpix magnetic beads (Catalog HCYTO – 60K; Millipore Sigma, Burlington, MA). Cell pellets from the macrophage cultures were collected for western blot analysis using capillary electrophoresis to analyze the effect on TTP, with glyceraldehyde 3-phosphate dehydrogenase (GAPDH) used as the house-keeping protein in the capillary electrophoresis. Antibodies against total TTP (CST#7162 Rabbit Monoclonal antibody) and GAPDH (CST#5174 Rabbit Monoclonal antibody) were used to detect the respective proteins."}, "[2]": {"tested_on": "TNF, IL-6, and IL-1β transcripts", "test": "Cytokine mRNA decay in LPS-stimulated macrophages with actinomycin D", "format": "cell-based, human", "conditions": "1 μM CC-99677 with 10 μg/mL actinomycin D, normalized to GAPDH", "description": "After each time point, macrophages were washed with PBS and lysed with RLT Plus Lysis Buffer (Qiagen, Germantown, MD). RNA was isolated using the QiaCube, followed by cDNA preparation using Superscript IV enzyme mix (Invitrogen, Thermo Fisher, Waltham, MA)."}},
  "data": [
    {"smiles": "CCOCc1cnc(Cl)nc1Oc1ccc2c(ccc3sc4c(c32)NC[C@@H](C)NC4=O)n1", "note": "[CC-99677]", "values": [
      {"measurement": "Total TTP levels (surrogate for TTP phosphorylation state)", "setting": "[1]", "result": "dose-dependent reduction in total TTP levels"},
      {"measurement": "mRNA decay of TNF, IL-6, and IL-1β transcripts", "setting": "[2]", "result": "significantly greater mRNA decay compared with actinomycin D alone"}
    ]}
  ]
}
